Publication PMC11677527, “Predicting Pharmacokinetics of Active Constituents in Spatholobi caulis by Using Physiologically Based Pharmacokinetic Models” (Pharmaceuticals, 2024)
Read-outs that look alike come from different tables or passages of the source.

Assays:
[1] = Observed pharmacokinetics in rats after oral SPC (previous study); assay type: in vivo, rat; details: p.o. SPC
[2] = Verification pharmacokinetic experiment in rats, SPC 60 g crude drug/kg by gavage, UFLC-MS/MS, DAS 2.0; assay type: in vivo, rat
Experimental: To validate the accuracy of PBPK models in predicting the pharmacokinetics of SPC constituents at different oral doses, the pharmacokinetic behavior of these four constituents from SPC in rats were analyzed by UFLC-MS/MS. The parameters were calculated using Drug and Statistics Software version 2.0, and then these validated values (Val.) were used to check the accuracy of the Calc. values and evaluated by FE.
The pharmacokinetic fitting results of rats given 60 g crude drug/kg body weight of SPC by gavage were verified by experiments. The verification experiment was conducted according to our previous pharmacokinetic study. In brief, 1.5 mL suspension of SPC was given to rats by oral administration; 300 μL blood samples from orbital venous at 0.083, 0.25, 0.5, 0.75, 1.0, 1.5, 2, 3, 4, 6, 8, and 12 h were collected and pretreated with heparin sodium. After centrifugation, the plasma samples were obtained and further processed for subsequent detection by UFLC-MS/MS; the detailed analysis method is shown in Supplementary Data (Table S1 and Figure S1). The concentration-time curve of each compound was gained, and the pharmacokinetic parameters were calculated using DAS 2.0 software (DAS 2.0, Mathematical Pharmacology Professional Committee of China, Shanghai, China). The results of these four constituents were compared with the PBPK parameters predicted in rats at an oral dose of 60 g crude drug/kg body weight of SPC.
1. The instrument and analytical conditions of UFLC-MS/MS method
4 constituents (1. 3′-methoxydadizein; 2. 8-O-methylretusin; 3. Daidzin; and 4. […]
The internal standard (IS) carbamazepine with a purity of more than 99 % was purchased from Beijing JK-chemical technology Co. Ltd., (Beijing China). Heparin sodium was gained from Tianjin biochemical pharmaceutical Co. Ltd, (Tianjin, China).
Ammonium acetate of HPLC grade, methanol and acetonitrile of LC-MS grade were purchased from Sigma (LOT# BCBK6717V, sigma-aldrich, Co., MO, USA) and Fisher (Fisher Corp., Fair lawn, NJ, USA) respectively. The experimental ultrapure water was prepared by Millipore Milli-Q ultrapure water preparation apparatus (Millipore Sigma, […]
The detailed information of Shimadzu UFLC-MS/MS 8050 liquid mass system equipped with Nexera X2UFLC liquid chromatography system and 8050 triple quadrupole mass spectrometers with an electrospray ionization source were listed in our previous study. The supporting LabSolution workstation was used for data […]
The separation without superposition of analytes in plasma sample was achieved on a Kinetex® C18 chromatographic column (100mm×2.1mm i.d.; 2.6 μm, 100 Å; Phenomenex, Inc., Torrance, CA, USA) assembled with a Phenomenex p/n AJ0-9000 C18 protection column. The mobile phase was consisted of 0.5 mM ammonium acetate in water (A) and ACN (B). The gradient elution program was selected ultimately as […]
95 % B (18.7–22 min). Column and automatic sampler temperature were set as 30 °C and 4 °C respectively. The flow rate of mobile phase was 0.35 mL/min while sample injection volume was 4 μL.
Multiple reaction monitoring (MRM) of positive or negative modes were used as scanning modes for the analytes and IS. Other essential parameters were successively optimized as: Nebulizing gas flow, 3 L/min; Heating gas flow, 10 L/min; Drying gas flow, 10 L/min; Interface temperature, 300 °C; DL temperature, 250 °C; Interface and detector voltage were each set as 3.0 kV and 1.8 kV. The detection parameters such as retention time (RT), dwell time (DT), quadrupole 1 pre-rod bias (Q1), collision energy […]
Table S1 The retention time and ion equivalent parameters of 4 constituents in rat […]
Constituents Retention Precursor Precursor Product time Pre energy Pre time (min) ion species ion ion (msec) Bias (V) Bias

Caco-2 cell monolayer = tested on: Caco-2 cell monolayer; parameters: method as in PMID 36680806, PMID 26501241; details: Caco-2 cell monolayer model; cited from earlier work
[3] = parameters: method as in PMID 34303214; details: rats, p.o. SPC 30 g crude drug/kg; doses of 1-4: 0.062, 0.11, 0.71, 1.31 mg/kg; cited from earlier work
[4] = compartment model parameters, DAS 2.0, rats p.o. SPC 60 g crude drug/kg, Mean, 5 rats
[5] = statistical moment parameters, DAS 2.0, rats p.o. SPC 60 g crude drug/kg, Mean, 5 rats
[6] = statistical moment parameters, DAS 2.0, rats p.o. SPC 60 g crude drug/kg, Mean, 5 rats, in µg·h²/mL

time of slight secondary absorption peak [1]: 3 h
K10 [2, 4]: 6.671 h⁻¹
K12 [2, 4]: 0.394 h⁻¹
K21 [2, 4]: 0.474 h⁻¹
Ka [2, 4]: 2.056 h⁻¹
Tlag [2, 4]: 0 h
V1/F [2, 4]: 12.043 L/kg
t1/2Ka [2, 4]: 20.246 h
t1/2α [2, 4]: 34.861 h
concentration at 0.083 h ([2]; rat, plasma, oral, time 0.083 h, rats p.o. SPC 60 g crude drug/kg, doses of 1-4: 0.124, 0.22, 1.4, 2.62 mg/kg, 5 rats): 9 ng/mL
concentration at 0.25 h ([2]; rat, plasma, oral, time 0.25 h, rats p.o. SPC 60 g crude drug/kg, doses of 1-4: 0.124, 0.22, 1.4, 2.62 mg/kg, 5 rats): 22.9 ng/mL
concentration at 0.5 h ([2]; rat, plasma, oral, time 0.5 h, rats p.o. SPC 60 g crude drug/kg, doses of 1-4: 0.124, 0.22, 1.4, 2.62 mg/kg, 5 rats): 12.3 ng/mL
concentration at 0.75 h ([2]; rat, plasma, oral, time 0.75 h, rats p.o. SPC 60 g crude drug/kg, doses of 1-4: 0.124, 0.22, 1.4, 2.62 mg/kg, 5 rats): 5.23 ng/mL
concentration at 1 h ([2]; rat, plasma, oral, time 1 h, rats p.o. SPC 60 g crude drug/kg, doses of 1-4: 0.124, 0.22, 1.4, 2.62 mg/kg, 5 rats): 3.33 ng/mL
concentration at 1.5 h ([2]; rat, plasma, oral, time 1.5 h, rats p.o. SPC 60 g crude drug/kg, doses of 1-4: 0.124, 0.22, 1.4, 2.62 mg/kg, 5 rats): 1.97 ng/mL
concentration at 2 h ([2]; rat, plasma, oral, time 2 h, rats p.o. SPC 60 g crude drug/kg, doses of 1-4: 0.124, 0.22, 1.4, 2.62 mg/kg, 5 rats): 0.809 ng/mL
concentration at 3 h ([2]; rat, plasma, oral, time 3 h, rats p.o. SPC 60 g crude drug/kg, doses of 1-4: 0.124, 0.22, 1.4, 2.62 mg/kg, 5 rats): 0.809 ng/mL
concentration at 4 h ([2]; rat, plasma, oral, time 4 h, rats p.o. SPC 60 g crude drug/kg, doses of 1-4: 0.124, 0.22, 1.4, 2.62 mg/kg, 5 rats): 0.409 ng/mL
concentration at 6 h ([2]; rat, plasma, oral, time 6 h, rats p.o. SPC 60 g crude drug/kg, doses of 1-4: 0.124, 0.22, 1.4, 2.62 mg/kg, 5 rats): 0.445 ng/mL
concentration at 8 h ([2]; rat, plasma, oral, time 8 h, rats p.o. SPC 60 g crude drug/kg, doses of 1-4: 0.124, 0.22, 1.4, 2.62 mg/kg, 5 rats): 0.161 ng/mL
AUC(0-t) ([2]; rat, plasma, po, 0.22 mg/kg, compartment model parameters, DAS 2.0, rats p.o. SPC 60 g crude drug/kg, Mean, 5 rats, read-out: AUC(0-t)): 19.8 ng·h/mL
AUC(0-inf) ([2]; rat, plasma, po, 0.22 mg/kg, compartment model parameters, DAS 2.0, rats p.o. SPC 60 g crude drug/kg, Mean, 5 rats, read-out: AUC(0-∞)): 22.4 ng·h/mL
CL/F ([2]; rat, plasma, po, 0.22 mg/kg, compartment model parameters, DAS 2.0, rats p.o. SPC 60 g crude drug/kg, Mean, 5 rats, read-out: CL/F (converted)): 209 mL/min/kg
half-life ([2]; rat, plasma, po, 0.22 mg/kg, compartment model parameters, DAS 2.0, rats p.o. SPC 60 g crude drug/kg, Mean, 5 rats, read-out: t1/2β (converted)): 35.4 h
AUC(0-t) ([2]; rat, plasma, po, 0.22 mg/kg, statistical moment parameters, DAS 2.0, rats p.o. SPC 60 g crude drug/kg, Mean, 5 rats, read-out: AUC(0-t)): 15.3 ng·h/mL
AUC(0-inf) ([2]; rat, plasma, po, 0.22 mg/kg, statistical moment parameters, DAS 2.0, rats p.o. SPC 60 g crude drug/kg, Mean, 5 rats, read-out: AUC(0-∞)): 15.5 ng·h/mL
CL/F ([2]; rat, plasma, po, 0.22 mg/kg, statistical moment parameters, DAS 2.0, rats p.o. SPC 60 g crude drug/kg, Mean, 5 rats, read-out: CLz/F (converted)): 238 mL/min/kg
Cmax ([2]; rat, plasma, po, 0.22 mg/kg, statistical moment parameters, DAS 2.0, rats p.o. SPC 60 g crude drug/kg, Mean, 5 rats, read-out: Cmax): 25.3 ng/mL
MRT last ([2]; rat, plasma, po, 0.22 mg/kg, statistical moment parameters, DAS 2.0, rats p.o. SPC 60 g crude drug/kg, Mean, 5 rats, read-out: MRT(0-t)): 1.01 h
MRT inf ([2]; rat, plasma, po, 0.22 mg/kg, statistical moment parameters, DAS 2.0, rats p.o. SPC 60 g crude drug/kg, Mean, 5 rats, read-out: MRT(0-∞)): 1.3 h
Tmax ([2]; rat, plasma, po, 0.22 mg/kg, statistical moment parameters, DAS 2.0, rats p.o. SPC 60 g crude drug/kg, Mean, 5 rats, read-out: Tmax): 0.25 h
Vd/F ([2]; rat, plasma, po, 0.22 mg/kg, statistical moment parameters, DAS 2.0, rats p.o. SPC 60 g crude drug/kg, Mean, 5 rats, read-out: Vz/F): 22.1 L/kg
half-life ([2]; rat, plasma, po, 0.22 mg/kg, statistical moment parameters, DAS 2.0, rats p.o. SPC 60 g crude drug/kg, Mean, 5 rats, read-out: t1/2z (converted)): 1.07 h
AUC(0-t) ([2]; rat, plasma, po, 2.62 mg/kg, rats, p.o. SPC 60 g crude drug/kg, doses of 1-4: 0.124, 0.22, 1.42, 2.62 mg/kg, n = 5, read-out: AUC0→t Val.): 15.3 ng·h/mL
AUC(0-inf) ([2]; rat, plasma, po, 2.62 mg/kg, rats, p.o. SPC 60 g crude drug/kg, doses of 1-4: 0.124, 0.22, 1.42, 2.62 mg/kg, n = 5, read-out: AUC0→∞ Val.): 15.5 ng·h/mL
Tmax ([2]; rat, plasma, po, rats, p.o. SPC 60 g crude drug/kg, doses of 1-4: 0.124, 0.22, 1.42, 2.62 mg/kg, n = 5, read-out: Tmax Val.): 0.25 h
Cz [2, 5]: 0.107 µg/L
VRT(0-t) [2, 5]: 1.65 h^2
VRT(0-∞) [2, 5]: 3.316 h^2
elimination rate constant [2, 5]: 0.675 h⁻¹
AUMC(0-t) [2, 6]: 15.37
AUMC(0-∞) [2, 6]: 20.163
Structure (SMILES): COc1ccc(-c2coc3c(OC)c(O)ccc3c2=O)cc1 [Constituent 2, 8-O-methylretusin]
Papp (Caco-2 cell monolayer): 24.8 ×10⁻⁶ cm/s
AUC0→t Obs. [3]: 9.7 ng·h/mL
AUC0→∞ Obs. [3]: 11.5 ng·h/mL
Cmax Obs. [3]: 13.6 ng/mL
